Test results from PubChem BioAssay (NCI).
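GI50: concentration for 50% inhibition of growth. TGI: concentration producing complete growth inhibition.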

Key:
Test in all cases: NCI-60 cell line screen, 384-well format
HOP-62 NSCLC = tested on: HOP-62 NSCLC
NCI-H522 lung = tested on: NCI-H522 lung
KM12 colon = tested on: KM12 colon
T-47D breast = tested on: T-47D breast
OVCAR-5 ovarian = tested on: OVCAR-5 ovarian
HCT-15 colon = tested on: HCT-15 colon
SF-268 CNS = tested on: SF-268 CNS
SK-MEL-2 melanoma = tested on: SK-MEL-2 melanoma
OVCAR-4 ovarian = tested on: OVCAR-4 ovarian
MCF7 breast = tested on: MCF7 breast
SK-MEL-5 melanoma = tested on: SK-MEL-5 melanoma
UO-31 renal = tested on: UO-31 renal
EKVX NSCLC = tested on: EKVX NSCLC
RPMI-8226 leukemia = tested on: RPMI-8226 leukemia
MDA-MB-231 breast = tested on: MDA-MB-231 breast
SK-OV-3 ovarian = tested on: SK-OV-3 ovarian
UACC-62 melanoma = tested on: UACC-62 melanoma
SNB-75 CNS = tested on: SNB-75 CNS
HL-60(TB) leukemia = tested on: HL-60(TB) leukemia
SK-MEL-28 melanoma = tested on: SK-MEL-28 melanoma
MALME-3M melanoma = tested on: MALME-3M melanoma
NCI-H23 lung = tested on: NCI-H23 lung
CAKI-1 renal = tested on: CAKI-1 renal
HOP-92 NSCLC = tested on: HOP-92 NSCLC
RXF 393 renal = tested on: RXF 393 renal
LOX IMVI melanoma = tested on: LOX IMVI melanoma
DU-145 prostate = tested on: DU-145 prostate
A549 NSCLC = tested on: A549 NSCLC
HT29 colon = tested on: HT29 colon
M14 melanoma = tested on: M14 melanoma
SW-620 colon = tested on: SW-620 colon
ACHN renal = tested on: ACHN renal
MOLT-4 leukemia = tested on: MOLT-4 leukemia
UACC-257 melanoma = tested on: UACC-257 melanoma
HS 578T breast = tested on: HS 578T breast
MDA-MB-468 breast = tested on: MDA-MB-468 breast
COLO 205 colon = tested on: COLO 205 colon
SF-539 CNS = tested on: SF-539 CNS
IGROV1 ovarian = tested on: IGROV1 ovarian
CCRF-CEM leukemia = tested on: CCRF-CEM leukemia
HCT-116 colon = tested on: HCT-116 colon
U251 glioblastoma = tested on: U251 glioblastoma
HCC-2998 colon = tested on: HCC-2998 colon
786-0 renal = tested on: 786-0 renal
PC-3 prostate = tested on: PC-3 prostate
SN12C renal = tested on: SN12C renal
SNB-19 CNS = tested on: SNB-19 CNS
OVCAR-3 ovarian = tested on: OVCAR-3 ovarian
K-562 leukemia = tested on: K-562 leukemia
NCI-H226 lung = tested on: NCI-H226 lung
TK-10 renal = tested on: TK-10 renal
A498 renal = tested on: A498 renal
NCI/ADR-RES ovarian = tested on: NCI/ADR-RES ovarian
NCI-H322M lung = tested on: NCI-H322M lung
OVCAR-8 ovarian = tested on: OVCAR-8 ovarian
MDA-MB-435 melanoma = tested on: MDA-MB-435 melanoma
NCI-H460 NSCLC = tested on: NCI-H460 NSCLC
SF-295 CNS = tested on: SF-295 CNS
BT-549 breast = tested on: BT-549 breast

CNC(=O)c1ccccc1Nc1nc(Nc2ccc(N3CCOCC3)cc2OC)ncc1Cl
GI50 (HOP-62 NSCLC): 751 nM
TGI (HOP-62 NSCLC): 8.77 µM
GI50 (NCI-H522 lung): 407 nM
TGI (NCI-H522 lung): 1720 nM
GI50 (KM12 colon): 261 nM
TGI (KM12 colon): 899 nM
GI50 (T-47D breast): 1710 nM
TGI (T-47D breast): 8.71 µM
GI50 (OVCAR-5 ovarian): 597 nM
TGI (OVCAR-5 ovarian): 5.66 µM
GI50 (HCT-15 colon): 464 nM
TGI (HCT-15 colon): 10.9 µM
GI50 (SF-268 CNS): 1620 nM
TGI (SF-268 CNS): 14.3 µM
GI50 (SK-MEL-2 melanoma): 333 nM
TGI (SK-MEL-2 melanoma): 1670 nM
GI50 (OVCAR-4 ovarian): 547 nM
TGI (OVCAR-4 ovarian): 18.7 µM
GI50 (MCF7 breast): 93.7 nM
TGI (MCF7 breast): 14.6 µM
GI50 (SK-MEL-5 melanoma): 766 nM
TGI (SK-MEL-5 melanoma): 10.7 µM
GI50 (UO-31 renal): 718 nM
TGI (UO-31 renal): 5.32 µM
GI50 (EKVX NSCLC): 158 nM
TGI (EKVX NSCLC): 1320 nM
GI50 (RPMI-8226 leukemia): 236 nM
TGI (RPMI-8226 leukemia): 826 nM
GI50 (MDA-MB-231 breast): 715 nM
TGI (MDA-MB-231 breast): > 100 µM
GI50 (SK-OV-3 ovarian): 741 nM
TGI (SK-OV-3 ovarian): 4.8 µM
GI50 (UACC-62 melanoma): 487 nM
TGI (UACC-62 melanoma): 2910 nM
GI50 (SNB-75 CNS): 1160 nM
TGI (SNB-75 CNS): 4.18 µM
GI50 (HL-60(TB) leukemia): 107 nM
TGI (HL-60(TB) leukemia): 264 nM
GI50 (SK-MEL-28 melanoma): 1340 nM
TGI (SK-MEL-28 melanoma): 13.4 µM
GI50 (MALME-3M melanoma): 287 nM
TGI (MALME-3M melanoma): 4.72 µM
GI50 (NCI-H23 lung): 431 nM
TGI (NCI-H23 lung): 2630 nM
GI50 (CAKI-1 renal): 664 nM
TGI (CAKI-1 renal): 2440 nM
GI50 (HOP-92 NSCLC): 472 nM
TGI (HOP-92 NSCLC): 2230 nM
GI50 (RXF 393 renal): 467 nM
TGI (RXF 393 renal): 2310 nM
GI50 (LOX IMVI melanoma): 754 nM
TGI (LOX IMVI melanoma): 2500 nM
GI50 (DU-145 prostate): 485 nM
TGI (DU-145 prostate): 3.47 µM
GI50 (A549 NSCLC): 398 nM
TGI (A549 NSCLC): 2120 nM
GI50 (HT29 colon): 200 nM
TGI (HT29 colon): 1660 nM
GI50 (M14 melanoma): 359 nM
TGI (M14 melanoma): 5.88 µM
GI50 (SW-620 colon): 400 nM
TGI (SW-620 colon): 2440 nM
GI50 (ACHN renal): 1110 nM
TGI (ACHN renal): 9.28 µM
GI50 (MOLT-4 leukemia): 200 nM
TGI (MOLT-4 leukemia): 380 nM
GI50 (UACC-257 melanoma): 2620 nM
TGI (UACC-257 melanoma): 22.2 µM
GI50 (HS 578T breast): 977 nM
TGI (HS 578T breast): 3.47 µM
GI50 (MDA-MB-468 breast): 655 nM
TGI (MDA-MB-468 breast): 2200 nM
GI50 (COLO 205 colon): 138 nM
TGI (COLO 205 colon): 289 nM
GI50 (SF-539 CNS): 1390 nM
TGI (SF-539 CNS): 7.13 µM
GI50 (IGROV1 ovarian): 380 nM
TGI (IGROV1 ovarian): 1910 nM
GI50 (CCRF-CEM leukemia): 199 nM
TGI (CCRF-CEM leukemia): 376 nM
GI50 (HCT-116 colon): 562 nM
TGI (HCT-116 colon): 2850 nM
GI50 (U251 glioblastoma): 2350 nM
TGI (U251 glioblastoma): 13.2 µM
GI50 (HCC-2998 colon): 711 nM
TGI (HCC-2998 colon): 3.36 µM
GI50 ([…]-0 renal): 997 nM
TGI (786-0 renal): 4.99 µM
GI50 (PC-3 prostate): 1870 nM
TGI (PC-3 prostate): 13.5 µM
GI50 (SN12C renal): 1380 nM
TGI (SN12C renal): 6.86 µM
GI50 (SNB-19 CNS): 2690 nM
TGI (SNB-19 CNS): 19.6 µM
GI50 (OVCAR-3 ovarian): 716 nM
TGI (OVCAR-3 ovarian): 6.28 µM
GI50 (K-562 leukemia): 4.53 µM
TGI (K-562 leukemia): 18.1 µM
GI50 (NCI-H226 lung): 636 nM
TGI (NCI-H226 lung): 5.35 µM
GI50 (TK-10 renal): 450 nM
TGI (TK-10 renal): 2190 nM
GI50 (A498 renal): 519 nM
TGI (A498 renal): 9.57 µM
GI50 (NCI/ADR-RES ovarian): 499 nM
TGI (NCI/ADR-RES ovarian): 2720 nM
GI50 (NCI-H322M lung): 1320 nM
TGI (NCI-H322M lung): 3.98 µM
GI50 (OVCAR-8 ovarian): 846 nM
TGI (OVCAR-8 ovarian): 5.78 µM
GI50 (MDA-MB-435 melanoma): 441 nM
TGI (MDA-MB-435 melanoma): 6.63 µM
GI50 (NCI-H460 NSCLC): 267 nM
TGI (NCI-H460 NSCLC): 1160 nM
GI50 (SF-295 CNS): 511 nM
TGI (SF-295 CNS): 7.44 µM
GI50 (BT-549 breast): 1260 nM
TGI (BT-549 breast): 10.4 µM
